From patent US20170334899A1, “AMINO-SUBSTITUTED ISOTHIAZOLES” (Bayer Pharma Aktiengesellschaft, priority 2014, published 2017)

molecular target: T1, human kinase Mps-1 (Homo sapiens, UniProt P33981); assay: Mps-1 kinase assay (TR-FRET); type: biochemical; settings: Mps-1 TR-FRET kinase assay; avg; read-out: Mps1 avg (IC50 [mol/l])
T1 construct: N-terminally GST-tagged human full length recombinant Mps-1 kinase; GST (N); purchased Invitrogen, Karslruhe, Germany PV4071
T1 sequence (P33981 1-857): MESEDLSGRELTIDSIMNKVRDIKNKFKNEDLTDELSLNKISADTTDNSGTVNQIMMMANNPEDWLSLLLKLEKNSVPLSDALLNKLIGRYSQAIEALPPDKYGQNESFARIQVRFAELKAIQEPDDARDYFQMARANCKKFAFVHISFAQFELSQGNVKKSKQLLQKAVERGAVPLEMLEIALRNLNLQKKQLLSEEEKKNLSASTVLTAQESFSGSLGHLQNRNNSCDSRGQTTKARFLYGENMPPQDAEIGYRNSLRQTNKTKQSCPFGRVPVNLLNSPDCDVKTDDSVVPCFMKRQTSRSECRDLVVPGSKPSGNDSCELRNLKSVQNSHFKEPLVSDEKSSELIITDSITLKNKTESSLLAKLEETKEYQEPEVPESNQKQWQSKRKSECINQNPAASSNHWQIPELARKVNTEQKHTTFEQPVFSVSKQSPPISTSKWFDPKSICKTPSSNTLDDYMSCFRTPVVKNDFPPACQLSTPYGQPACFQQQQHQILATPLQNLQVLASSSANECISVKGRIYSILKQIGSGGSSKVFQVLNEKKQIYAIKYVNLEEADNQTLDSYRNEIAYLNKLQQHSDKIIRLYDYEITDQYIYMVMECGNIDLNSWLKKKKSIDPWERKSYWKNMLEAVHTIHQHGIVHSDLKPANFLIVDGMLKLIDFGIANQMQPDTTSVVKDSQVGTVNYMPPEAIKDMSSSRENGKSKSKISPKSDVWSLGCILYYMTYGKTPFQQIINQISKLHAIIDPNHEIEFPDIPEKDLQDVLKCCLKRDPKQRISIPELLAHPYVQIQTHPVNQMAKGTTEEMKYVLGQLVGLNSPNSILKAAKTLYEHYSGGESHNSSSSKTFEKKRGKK
Description: The human kinase Mps-1 phosphorylates a biotinylated substrate peptide. Detection of the phosphorylated product is achieved by time-resolved fluorescence resonance energy transfer (TR-FRET) from Europium-labelled anti-phospho-Serine/Threonine antibody as donor to streptavidin labelled with cross-linked allophycocyanin (SA-XLent) as acceptor. Compounds are tested for their inhibition of the kinase activity.
N-terminally GST-tagged human full length recombinant Mps-1 kinase (purchased from Invitrogen, Karslruhe, Germany, cat. no PV4071) was used. As substrate for the kinase reaction a biotinylated peptide of the amino-acid sequence biotin-Ahx-PWDPDDADITEILG (C-terminus in amide form, purchased from Biosyntan GmbH, Berlin) was used.
For the assay 50 nl of a 100-fold concentrated solution of the test compound in DMSO was pipetted into a black low volume 384we11 microtiter plate (Greiner Bio-One, Frickenhausen, Germany), 2 μl of a solution of Mps-1 in assay buffer [0.1 mM sodium-ortho-vanadate, 10 mM MgCl2,2 mM DTT, 25 mM Hepes pH 7.7, 0.05% BSA (w/v), 0.001% Pluronic F-127] were added and the mixture was incubated for 15 min at 22° C. to allow pre-binding of the test compounds to Mps-1 before the start of the kinase reaction. Then the kinase reaction was started by the addition of 3 μl of a solution of 16.7 μM adenosine-tri-phosphate (ATP, 16.7 μM=>final conc. in the 5 μl assay volume is 10 μM) and peptide substrate (1.67 μM=>final conc. in the 5 μl assay volume is 1 μM) in assay buffer and the resulting mixture was incubated for a reaction time of 60 min at 22° C. The concentration of Mps-1 in the assay was adjusted to the activity of the enzyme lot and was chosen appropriate to have the assay in the linear range, typical enzyme concentrations were in the range of about 0.5 nM (final conc. in the 5 μl assay volume). The reaction was stopped by the addition of 5 μl of a solution of TR-FRET detection reagents (100 mM Hepes pH 7.4, 0.1% BSA, 40 mM EDTA, 140 nM Streptavidin-XLent [#61GSTXLB, Fa. Cis Biointernational, Marcoule, France], 1.5 nM anti-phospho(Ser/Thr)-Europium-antibody [#AD0180, PerkinElmer LAS, Rodgau-Jugesheinn, Germany]. Instead of the 1.5 nM anti-phospho(Ser/Thr)-Europium-antibody a mixture of 2 nM unlabeled anti-phospho ser/thr-pro antibody MPM-2 [Millipore cat. #05-368] and 1 nM LANCE EU-W1024 labeled anti-mouse IgG antibody [Perkin-Elmer, product no. AD0077] can be used).
The resulting mixture was incubated 1 h at 22° C. to allow the binding of the phosphorylated peptide to the anti-phospho(Ser/Thr)-Europium-antibody. Subsequently the amount of phosphorylated substrate was evaluated by measurement of the resonance energy transfer from the Europium-labelled anti-phospho(Ser/Thr) antibody to the Streptavidin-XLent. Therefore, the fluorescence emissions at 620 nm and 665 nm after excitation at 350 nm was measured in a Viewlux TR-FRET reader (PerkinElmer LAS, Rodgau-Jugesheinn, Germany). The “blank-corrected normalized ratio” (a Viewlux specific readout, similar to the traditional ratio of the emissions at 665 nm and at 622 nm, in which blank and Eu-donor crosstalk are subtracted from the 665 nm signal before the ratio is calculated) was taken as the measure for the amount of phosphorylated substrate. The data were normalised (enzyme reaction without inhibitor=0% inhibition, all other assay components but no enzyme=100% inhibition).

**Q.** For `Cc1nsc(Nc2cncc(C(F)(F)F)n2)c1C(=O)Nc1ccc(OCC2CCN(C(=O)OC(C)(C)C)C2)nc1` (centres unmarked) [Example 110, tert-Butyl 3-{[(5-{[(3-methyl-5-{[6-(trifluoromethyl)pyrazin-2-yl]amino}-1,2-thiazol-4-yl)carbonyl]amino}pyridin-2-yl)oxy]methyl}pyrrolidine-1-carboxylate], which IC50 is on record?
**A.** ≥ 20 µM

**Q.** For `Cc1nsc(Nc2cnc3ccccc3n2)c1C(=O)Nc1ccc(S(C)(=O)=O)cc1` [Example 115, 3-Methyl-N-[4-(methylsulfonyl)phenyl]-5-(quinoxalin-2-ylamino)-1,2-thiazole-4-carboxamide], which IC50 is on record?
**A.** ≥ 20 µM

**Q.** With `Cc1nsc(Nc2cc(C#N)ccn2)c1C(=O)Nc1cccc(C(=O)N2CCCC2)c1` [Example 114, 5-[(4-Cyanopyridin-2-yl)amino]-3-methyl-N-[3-(pyrrolidin-1-ylcarbonyl)phenyl]-1,2-thiazole-4-carboxamide] as the compound, how does the IC50 read?
**A.** ≥ 20 µM

**Q.** With `Cc1nsc(Nc2cnc(C(F)(F)F)cn2)c1C(=O)Nc1ccc(F)c(OCC2CCCN(CC(F)F)C2)c1` (centres unmarked) [Example 335, N-(3-{[1-(2,2-difluoroethyl)piperidin-3-yl]methoxy}-4-fluorophenyl)-3-methyl-5-{[5-(trifluoromethyl)pyrazin-2-yl]amino}-1,2-thiazole-4-carboxamide] as the compound, how does the IC50 read?
**A.** ≥ 20 µM

**Q.** `Cc1nsc(Nc2cnc(C(F)(F)F)cn2)c1C(=O)Nc1ccc(O[C@H]2CCN(CC(F)F)C[C@H]2F)nc1` [Example 144, N-(6-{[(3R,4S)-1-(2,2-difluoroethyl)-3-fluoropiperidin-4-yl]oxy}pyridin-3-yl)-3-methyl-5-{[5-(trifluoromethyl)pyrazin-2-yl]amino}-1,2-thiazole-4-carboxamide] was tested. Which IC50 did it give?
**A.** > 20 µM

**Q.** `CC(=O)N1CCC(Oc2ccc(NC(=O)c3c(C)nsc3Nc3cnc(C(F)(F)F)cn3)cn2)CC1` [Example 11, N-{6-[(1-Acetylpiperidin-4-yl)oxy]pyridin-3-yl}-3-methyl-5-{[5-(trifluoromethyl)-pyrazin-2-yl]amino}-1,2-thiazole-4-carboxamide] was tested. Which IC50 did it give?
**A.** ≥ 20 µM

**Q.** Which IC50 does the source give for `Cc1nsc(Nc2cnc3ccccc3n2)c1C(=O)Nc1cccc(-c2nnc(C(C)(C)C)o2)c1` [Example 107, N-[3-(5-tert-Butyl-1,3,4-oxadiazol-2-yl)phenyl]-3-methyl-5-(quinoxalin-2-ylamino)-1,2-thiazole-4-carboxamide] here?
**A.** ≥ 20 µM

**Q.** For `Cc1nsc(Nc2cnc3ccccc3n2)c1C(=O)Nc1ccc(C(=O)N2CCCN(CC(F)(F)F)CC2)cc1` [Example 159], which IC50 is on record?
**A.** > 20 µM

**Q.** With `Cc1nsc(Nc2cnc3ccccc3n2)c1C(=O)Nc1ccc(NC2CC2)nc1` [Example 172, N-[6-(cyclopropylamino)pyridin-3-yl]-3-methyl-5-(quinoxalin-2-ylamino)-1,2-thiazole-4-carboxamide] as the compound, how does the IC50 read?
**A.** > 20 µM

**Q.** For `Cc1nsc(Nc2cnc(C(F)(F)F)cn2)c1C(=O)Nc1ccc(C(=O)O)cc1` [Example 97, 4-{[(3-Methyl-5-{[5-(trifluoromethyl)pyrazin-2-yl]amino}-1,2-thiazol-4-yl)carbony]-amino}benzoic acid], which IC50 is on record?
**A.** ≥ 20 µM

**Q.** With `Cc1nsc(Nc2cnc(C(F)(F)F)cn2)c1C(=O)Nc1ccc(OC2CCN(CCF)CC2)nc1` [Example 7, N-(6-{[1-(2-Fluoroethyl)piperidin-4-yl]oxy}pyridin-3-yl)-3-methyl-5-{[5-(trifluoromethyl)pyrazin-2-yl]amino}-1,2-thiazole-4-carboxamide] as the compound, how does the IC50 read?
**A.** ≥ 20 µM

**Q.** For `Cc1nsc(Nc2cnc(C(F)(F)F)cn2)c1C(=O)Nc1ccc(OCC2CCN(CC(F)(F)F)C2)nc1` (centres unmarked) [Example 123, 3-Methyl-N-(6-{[1-(2,2,2-trifluoroethyl)pyrrolidin-3-yl]methoxy}pyridin-3-yl)-5-{[5-(trifluoromethyl)pyrazin-2-yl]amino}-1,2-thiazole-4-carboxamide], which IC50 is on record?
**A.** ≥ 20 µM

**Q.** Which IC50 does the source give for `Cc1nsc(Nc2cnc(C(F)(F)F)cn2)c1C(=O)Nc1ccc(OCC2CCN(CC(F)F)C2)nc1` (centres unmarked) [Example 122, N-(6-{[1-(2,2-difluoroethyl)pyrrolidin-3-yl]methoxy}pyridin-3-yl)-3-methyl-5-{[5-(trifluoromethyl)pyrazin-2-yl]amino}-1,2-thiazole-4-carboxamide] here?
**A.** ≥ 20 µM

**Q.** For `Cc1nsc(Nc2cnc3ccccc3n2)c1C(=O)Nc1ccc(C(=O)N2CCN(CC(F)F)CC2)cc1` [Example 157, N-(4-{[4-(2,2-difluoroethyl)piperazin-1-yl]carbonyl}phenyl)-3-methyl-5-(quinoxalin-2-ylamino)-1,2-thiazole-4-carboxamide], which IC50 is on record?
**A.** > 20 µM

**Q.** With `Cc1nsc(Nc2cncc(C(F)(F)F)n2)c1C(=O)Nc1ccc(OC2CCN(C(=O)OC(C)(C)C)CC2)nc1` [Example 12, tert-Butyl 4-[(5-{[(3-methyl-5-{[6-(trifluoromethyl)pyrazin-2-yl]amino}-1,2-thiazol-4-yl)carbonyl]amino}pyridin-2-yl)oxy]piperidine-1-carboxylate] as the compound, how does the IC50 read?
**A.** ≥ 20 µM

**Q.** With `Cc1nsc(Nc2cnc(C(F)(F)F)cn2)c1C(=O)Nc1ccc(OC2CCN(C(C)C)CC2)nc1` [Example 160, N-{6-[(1-isopropylpiperidin-4-yl)oxy]pyridin-3-yl}-3-methyl-5-{[5-(trifluoromethyl)pyrazin-2-yl]amino}-1,2-thiazole-4-carboxamide] as the compound, how does the IC50 read?
**A.** > 20 µM

**Q.** Which IC50 does the source give for `Cc1nsc(Nc2ccc(C#N)cn2)c1C(=O)Nc1cccc(S(C)(=O)=O)c1` [Example 150, 5-[(5-cyanopyridin-2-yl)amino]-3-methyl-N-[3-(methylsulfonyl)phenyl]-1,2-thiazole-4-carboxamide] here?
**A.** > 20 µM

**Q.** For `Cc1nsc(Nc2cncc(C(F)(F)F)n2)c1C(=O)Nc1ccc(F)c(OC2CCN(C(=O)OC(C)(C)C)CC2)c1` [Example 168, tert-butyl 4-(2-fluoro-5-{[(3-methyl-5-{[6-(trifluoromethyl)pyrazin-2-yl]amino}-1,2-thiazol-4-yl)carbonyl]amino}phenoxy)piperidine-1-carboxylate], which IC50 is on record?
**A.** > 20 µM

**Q.** For `Cc1noc(-c2cccc(NC(=O)c3c(C)nsc3Nc3cnc4ccccc4n3)c2)n1` [Example 106, 3-Methyl-N-[3-(3-methyl-1,2,4-oxadiazol-5-yl)phenyl]-5-(quinoxalin-2-ylamino)-1,2-thiazole-4-carboxamide], which IC50 is on record?
**A.** ≥ 20 µM

**Q.** How did the IC50 turn out when `Cc1nsc(Nc2ccc(C#N)cn2)c1C(=O)Nc1ccc(Oc2cccc(C(F)(F)F)c2)nc1` [Example 118, 5-[(5-Cyanopyridin-2-yl)amino]-3-methyl-N-{6-[3-(trifluoromethyl)phenoxy]pyridin-3-yl}-1,2-thiazole-4-carboxamide] was run?
**A.** ≥ 20 µM
